The text below walks through data of publication PMC2000878, “Module structure of interphotoreceptor retinoid-binding protein (IRBP) may provide bases for its complex role in the visual cycle – structure/function study of Xenopus IRBP” (BMC Biochemistry, 2007).

What all share (type): binding
The target of one assay is T1, Xenopus IRBP Module 3 (Xenopus laevis, UniProt Q7SZI7).
T1 construct: cDNAs corresponding to the full-length IRBP, module 1, and module 2 were expressed in pThioHis; modules 3 and 4 were expressed in pTrxFus; made in house; host or cells: E. coli GI724 / GI698 (pTrxFus)
The experiment in a line: Fluorometric titration (enhancement, quenching). From the text:
(§1) Enhancement of retinol fluorescence and quenching of the intrinsic protein fluorescence were used to monitor binding of all-trans retinol to the recombinant IRBPs. We previously derived an equation that is generally useful for describing such quantum yield changes that are consequent upon ligand binding. This equation has been previously applied to the analysis of binding by monitoring the enhancement of retinol fluorescence. In this case, where excitation is at 330 nm and emission is monitored at 480, the fluorescence enhancement (Fenh) depends on the total retinol concentration (Rt), the dissociation constant (Kd ^all-trans), the number of retinol-binding sites per protein molecule (N) and the total protein concentration (Pt).
(§2) Assuming that there is a single type of noninteracting site on the protein, (Fenh) is expected to be linearly related to the concentration of bound retinol molecules. Fenh is given by the relation
(§3) Fenh=C1+C2[Rtall−trans−(Rtall−trans+NPt+Kdall−trans)^2−4NPtRtall−trans] MathType@MTEF@5@5@+=feaafiart1ev1aaatCvAUfKttLearuWrP9MDH5MBPbIqV92AaeXatLxBI9gBaebbnrfifHhDYfgasaacH8akY=wiFfYdH8Gipec8Eeeu0xXdbba9frFj0=OqFfea0dXdd9vqai=hGuQ8kuc9pgc9s8qqaq=dirpe0xb9q8qiLsFr0=vr0=vr0dc8meaabaqaciaacaGaaeqabaqabeGadaaakeaacqWGgbGrdaWgaaWcbaGaemyzauMaemOBa4MaemiAaGgabeaakiabg2da9iabdoeadnaaBaaaleaacqaIXaqmaeqaaOGaey4kaSIaem4qam0aaSbaaSqaaiabikdaYaqabaGcdaWadaqaaiabdkfasnaaDaaaleaacqWG0baDaeaacqWGHbqycqWGSbaBcqWGSbaBcqGHsislcqWG0baDcqWGYbGCcqWGHbqycqWGUbGBcqWGZbWCaaGccqGHsisldaGcaaqaamaabmaabaGaemOuai1aa0baaSqaaiabdsha0bqaaiabdggaHjabdYgaSjabdYgaSjabgkHiTiabdsha0jabdkhaYjabdggaHjabd6gaUjabdohaZbaakiabgUcaRiabd6eaojabdcfaqnaaBaaaleaacqWG0baDaeqaaOGaey4kaSIaem4saS0aa0baaSqaaiabdsgaKbqaaiabdggaHjabdYgaSjabdYgaSjabgkHiTiabdsha0jabdkhaYjabdggaHjabd6gaUjabdohaZbaaaOGaayjkaiaawMcaamaaCaaaleqabaGaeGOmaidaaOGaeyOeI0IaeGinaqJaemOta4Kaemiuaa1aaSbaaSqaaiabdsha0bqabaGccqWGsbGudaqhaaWcbaGaemiDaqhabaGaemyyaeMaemiBaWMaemiBaWMaeyOeI0IaemiDaqNaemOCaiNaemyyaeMaemOBa4Maem4CamhaaaqabaaakiaawUfacaGLDbaaaaa@8490@
(§4) The equation was fit to the data by nonlinear least-squares analysis. To follow the quenching of the protein's intrinsic fluorescence the excitation and emission wavelengths were set to 280 nm and 340 nm, respectively, while the protein was titrated with all-trans retinol. For the quenching studies the inner filter effect was accounted for by graphical correction as previously described. Fluorescence measurements were made using an SLM 8000TM C photon counting spectrofluorometer corrected for wavelength dependence of source energy and detector response.

The next assay concerns the target T2, Xenopus IRBP Module 4 (Xenopus laevis, UniProt Q7SZI7).
T2 construct: cDNAs corresponding to the full-length IRBP, module 1, and module 2 were expressed in pThioHis; modules 3 and 4 were expressed in pTrxFus; made in house; host or cells: E. coli GI724 / GI698 (pTrxFus)
The experiment in a line: Fluorometric titration (enhancement, quenching).
Excerpt: as §1, §2, §3, §4

In assay [1] the target is X(1,2)IRBP (Xen IRBP modules 1&2) (Xenopus laevis, UniProt Q7SZI7). In words: Fluorometric titration, retinol fluorescence enhancement, double module. The settings on record: ex 330 nm, em 480 nm, protein 0.67 μM.
Excerpt: (§5) Why do the number of sites from individual modules add up to more than that detected in the full-length IRBP? Here we asked whether the number of sites within individual modules could at least predict the number in recombinant proteins consisting of two modules. We had originally anticipated that the sum of sites from individual modules would give the number in such "module pairs". However, this turned out to be not always true. We expressed and purified module combinations 1&2 and 3&4, termed X(1,2)IRBP and X(3,4)IRBP respectively. Binding of all-trans retinol to these module pairs was characterized by fluorometric titrations monitoring retinol-fluorescence enhancement (Figure 10). For X(1,2)IRBP, N = 2.45 ± 0.11 (2.40 sites were predicted from the sum of individual modules 1 plus 2). In contrast, N for X(3,4)IRBP was 1.43 ± 0.21 sites (predicted, 3.83 sites). […] That is, some sites may not be solvent exposed in the intact IRBP as they are within individual modules. […] Therefore it is plausible that some binding sites that are solvent exposed in the individual module are buried in the intact […]. To address this question, ongoing studies in our laboratories are aimed at determining the X-ray crystal structure of IRBPs composed of multiple modules.
(§6) Figure 10 Retinol binding to Xenopus IRBPs consisting of two contiguous modules. Binding of double modules IRBPs with all-trans retinol as followed during titrations by monitoring the increase in retinol fluorescence (excitation, 330 nm; emission, 480 nm). The concentration of the IRBP double module was: modules 1&2, 0.67 μM; modules 3&4, 0.57 μM.
as §1
(§7) Assuming that there is a single type of noninteracting site on the protein, (Fenh) is expected to be linearly related to the concentration of bound retinol molecules. […]
(§8) The equation was fit to the data by nonlinear least-squares analysis. To follow the quenching of the protein's intrinsic fluorescence the excitation and emission wavelengths were set to 280 nm and 340 nm, respectively, while the protein was titrated with all-trans retinol. […]

Assay [2] deals with X(3,4)IRBP (Xen IRBP modules 3&4) (Xenopus laevis, UniProt Q7SZI7). The description is as above. The settings on record: ex 330 nm, em 480 nm, protein 0.57 μM.
Excerpt: as §5, §6, §1, §7, §8

The mark [3] stands for this setting: all-trans retinol fluorescence enhancement, ex 330 nm, em 480 nm.
The mark [4] stands for this setting: quenching by all-trans retinol, ex 280 nm, em 340 nm, read-out: Kd, Quenching.

Each structure is given as a SMILES string. Like-named read-outs stand apart in the source and are kept apart here.

T1 sequence (Q7SZI7 616-922): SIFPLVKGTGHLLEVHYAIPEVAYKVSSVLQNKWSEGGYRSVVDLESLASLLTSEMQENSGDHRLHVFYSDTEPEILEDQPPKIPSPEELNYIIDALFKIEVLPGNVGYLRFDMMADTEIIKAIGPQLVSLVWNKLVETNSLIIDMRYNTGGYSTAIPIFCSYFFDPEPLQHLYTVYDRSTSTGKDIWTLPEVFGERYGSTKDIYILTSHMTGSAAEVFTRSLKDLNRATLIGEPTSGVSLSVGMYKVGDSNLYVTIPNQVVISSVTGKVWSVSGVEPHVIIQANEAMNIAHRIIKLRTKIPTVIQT
T2 sequence (Q7SZI7 923-1219): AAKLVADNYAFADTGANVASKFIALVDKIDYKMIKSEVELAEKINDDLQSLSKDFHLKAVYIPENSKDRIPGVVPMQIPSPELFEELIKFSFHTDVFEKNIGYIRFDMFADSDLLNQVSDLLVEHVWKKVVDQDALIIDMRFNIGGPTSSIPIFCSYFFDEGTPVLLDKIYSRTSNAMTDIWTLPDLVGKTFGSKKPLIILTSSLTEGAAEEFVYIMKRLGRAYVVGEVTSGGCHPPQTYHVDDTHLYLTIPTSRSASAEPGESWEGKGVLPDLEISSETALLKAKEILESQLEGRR
Sequence of X(1,2)IRBP (Xen IRBP modules 1&2) (Q7SZI7 23-617): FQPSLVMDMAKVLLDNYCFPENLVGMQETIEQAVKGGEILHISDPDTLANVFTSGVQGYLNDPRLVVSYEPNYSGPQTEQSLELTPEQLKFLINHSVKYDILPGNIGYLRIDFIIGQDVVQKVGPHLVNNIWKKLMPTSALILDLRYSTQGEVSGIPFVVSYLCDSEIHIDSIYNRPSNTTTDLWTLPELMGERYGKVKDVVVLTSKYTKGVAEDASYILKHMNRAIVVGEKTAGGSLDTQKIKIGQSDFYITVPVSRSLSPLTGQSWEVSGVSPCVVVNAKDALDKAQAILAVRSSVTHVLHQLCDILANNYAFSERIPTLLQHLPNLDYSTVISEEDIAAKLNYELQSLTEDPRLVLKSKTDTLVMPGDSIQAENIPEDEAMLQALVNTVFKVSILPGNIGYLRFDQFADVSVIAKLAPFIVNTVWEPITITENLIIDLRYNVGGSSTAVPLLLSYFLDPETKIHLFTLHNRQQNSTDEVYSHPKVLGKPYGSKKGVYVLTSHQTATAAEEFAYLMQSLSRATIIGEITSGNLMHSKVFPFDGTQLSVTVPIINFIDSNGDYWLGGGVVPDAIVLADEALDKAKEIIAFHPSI
Sequence of X(3,4)IRBP (Xen IRBP modules 3&4) (Q7SZI7 618-1219): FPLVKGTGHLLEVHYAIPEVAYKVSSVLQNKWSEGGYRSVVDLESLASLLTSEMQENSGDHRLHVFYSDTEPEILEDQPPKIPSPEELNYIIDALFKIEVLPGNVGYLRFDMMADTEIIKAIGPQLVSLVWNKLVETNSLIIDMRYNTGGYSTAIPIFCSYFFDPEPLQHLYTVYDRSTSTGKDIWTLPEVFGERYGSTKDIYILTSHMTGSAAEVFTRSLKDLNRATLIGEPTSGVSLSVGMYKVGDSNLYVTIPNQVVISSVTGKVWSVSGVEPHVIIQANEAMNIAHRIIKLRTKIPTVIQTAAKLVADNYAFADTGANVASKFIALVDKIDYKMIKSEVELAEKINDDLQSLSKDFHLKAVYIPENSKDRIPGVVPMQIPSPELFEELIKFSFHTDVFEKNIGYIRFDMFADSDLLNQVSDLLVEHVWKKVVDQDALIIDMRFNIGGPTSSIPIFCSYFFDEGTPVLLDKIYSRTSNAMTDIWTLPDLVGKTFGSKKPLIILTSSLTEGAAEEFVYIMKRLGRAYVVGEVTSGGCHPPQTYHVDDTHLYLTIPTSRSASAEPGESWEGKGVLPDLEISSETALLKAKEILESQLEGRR

Usually Kd stands for the constant that tells how readily two partners part at equilibrium. For the compound `CC1=C(/C=C/C(C)=C/C=C/C(C)=C/CO)C(C)(C)CCC1` [all-trans retinol], the “Binding sites (N), Enhancement” value was determined as 1.83 ± 0.42 on Xenopus IRBP Module 3 (setting [3]) and 2.06 ± 0.53 at Xenopus IRBP Module 4 (setting [3]). In addition, the Kd on Xenopus IRBP Module 3 (all-trans retinol fluorescence enhancement, ex 330 nm, em 480 nm, read-out: Kd, Enhancement) came out at 1180 ± 410 nM; on Xenopus IRBP Module 3 (setting [4]), 310 ± 40 nM; on Xenopus IRBP Module 4 (all-trans retinol fluorescence enhancement, ex 330 nm, em 480 nm, absence of 11-cis retinaldehyde, read-out: Kd, Enhancement), 1790 ± 540 nM; at Xenopus IRBP Module 4 (setting [4]) it was 640 ± 50 nM; in assay [1] it was 49 ± 23 nM; in assay [2] it was 190 ± 50 nM. Further, the “Binding sites (N)” value in assay [1] is listed as 2.45 ± 0.11; in assay [2] it was 1.43 ± 0.21.
